Assays:
CDK2/Cyclin E1 = CDK2/Cyclin E1 (Homo sapiens, UniProt P24941); experiment: CDK2/Cyclin E1 TR-FRET biochemical assay, 1 mM ATP; conditions: 0.15 μM Rb (Ser780)-biotin substrate, 90 min reaction, Table 2
CDK1/Cyclin B1 = CDK1/Cyclin B1 (Homo sapiens, UniProt P06493); experiment: CDK1/Cyclin B1 TR-FRET biochemical assay, 1 mM ATP; conditions: 0.15 μM Rb (Ser780)-biotin substrate, 90 min reaction, Table 2
CDK1/Cyclin B1, sequence (P06493 whole entry): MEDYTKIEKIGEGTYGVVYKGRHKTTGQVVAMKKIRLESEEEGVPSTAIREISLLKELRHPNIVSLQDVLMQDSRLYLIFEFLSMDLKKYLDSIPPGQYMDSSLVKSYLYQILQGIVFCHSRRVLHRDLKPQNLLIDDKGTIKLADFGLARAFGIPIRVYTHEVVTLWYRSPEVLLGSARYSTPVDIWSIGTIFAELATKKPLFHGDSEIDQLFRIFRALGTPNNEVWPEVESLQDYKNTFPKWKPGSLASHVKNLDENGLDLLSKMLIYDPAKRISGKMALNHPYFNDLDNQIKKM
CDK1/Cyclin B1, sequence (P14635 whole entry partner): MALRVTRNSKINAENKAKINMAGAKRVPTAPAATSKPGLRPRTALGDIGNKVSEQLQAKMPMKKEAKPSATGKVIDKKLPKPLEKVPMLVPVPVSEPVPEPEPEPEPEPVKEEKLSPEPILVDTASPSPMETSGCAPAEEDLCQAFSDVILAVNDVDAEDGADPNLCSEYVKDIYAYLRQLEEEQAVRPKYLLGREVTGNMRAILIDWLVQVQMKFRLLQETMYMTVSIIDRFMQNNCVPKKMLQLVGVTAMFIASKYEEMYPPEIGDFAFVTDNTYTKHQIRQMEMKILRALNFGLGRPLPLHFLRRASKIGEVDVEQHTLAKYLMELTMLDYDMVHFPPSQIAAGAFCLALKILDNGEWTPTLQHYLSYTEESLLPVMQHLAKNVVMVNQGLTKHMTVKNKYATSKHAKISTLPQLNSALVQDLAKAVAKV

| IC50 (CDK2/Cyclin E1) [nM] | IC50 (CDK1/Cyclin B1) [nM] | SMILES |
| --- | --- | --- |
| 12 | 2490 | CC(C)c1ccnc(C2CCC(c3cc(Nc4cc5c(cc4F)S(=O)(=O)NC5)n[nH]3)C2)n1 (stereo not shown) [Example 16, 6-fluoro-5-((5-(3-(4-isopropylpyrimidin-2-yl)cyclopentyl)-1H-pyrazol-3-yl)amino)-2,3-dihydrobenzo[d]isothiazole 1,1-dioxide] |
| 158 | > 10000 | CC(C)c1cnc(C2CCC(c3cc(Nc4ccc5c(c4F)CNS5(=O)=O)n[nH]3)C2)o1 (single isomer, unassigned) [Example 109d, 4-fluoro-5-((5-(3-(5-isopropyloxazol-2-yl)cyclopentyl)-1H-pyrazol-3-yl)amino)-2,3-dihydrobenzo[d]isothiazole 1,1-dioxide] |
| 12 | 2530 | CN1c2ccc(Nc3cc([C@@H]4CC[C@H](c5ncc(C(C)(C)C)o5)C4)[nH]n3)cc2CS1(=O)=O [Example 142, 5-((5-((1R,3S)-3-(5-(tert-butyl)oxazol-2-yl)cyclopentyl)-1H-pyrazol-3-yl)amino)-1-methyl-1,3-dihydrobenzo[c]isothiazole 2,2-dioxide] |
| 868 | > 10000 | COc1cccc(C2CCC(c3cc(Nc4ccc5c(c4F)CS(=O)(=O)N5)n[nH]3)C2)n1 (stereo not shown) [Example 160, 4-fluoro-5-((5-(3-(6-methoxypyridin-2-yl)cyclopentyl)-1H-pyrazol-3-yl)amino)-1,3-dihydrobenzo[c]isothiazole 2,2-dioxide] |
| 1.7 | 126 | CC(C)c1ccnc(C2CCC(c3cc(Nc4ccc5c(c4F)CS(=O)(=O)N5)n[nH]3)C2)n1 (stereo not shown) [Example 165, 4-fluoro-5-((5-(3-(4-isopropylpyrimidin-2-yl)cyclopentyl)-1H-pyrazol-3-yl)amino)-1,3-dihydrobenzo[c]isothiazole 2,2-dioxide] |
| 1.8 | 160 | CC(C)c1cnc(C2CCC(c3cc(Nc4ccc5c(c4)CS(=O)(=O)N5)n[nH]3)C2)o1 (single isomer, unassigned) [Example 138a, cis-5-((5-(3-(5-isopropyloxazol-2-yl)cyclopentyl)-1H-pyrazol-3-yl)amino)-1,3-dihydrobenzo[c]isothiazole 2,2-dioxide] |
| 54 | 5710 | CC(C)(C)c1ncccc1O[C@@H]1CC[C@H](c2cc(Nc3ccc4c(c3)CS(=O)(=O)N4)n[nH]2)C1 (relative stereo) [Example 139, cis-5-((5-(3-((2-(tert-butyl)pyridin-3-yl)oxy)cyclopentyl)-1H-pyrazol-3-yl)amino)-1,3-dihydrobenzo[c]isothiazole 2,2-dioxide] |
| 15 | 2350 | CC(C)c1cnc(C2CCC(c3cc(Nc4ccc5c(c4)CN=S5(C)=O)n[nH]3)C2)o1 (stereo not shown) [Example 168, 5-((5-(3-(5-isopropyloxazol-2-yl)cyclopentyl)-1H-pyrazol-3-yl)amino)-1-methyl-3H-1λ^4-benzo[d]isothiazole 1-oxide] |
| 2120 | > 10000 | CC(C)(C)c1cc(C2CCC(c3cc(Nc4ccc5c(c4F)CNS5(=O)=O)n[nH]3)C2)ncn1 (stereo not shown) [Example 130, 5-((5-(3-(6-(tert-butyl)pyrimidin-4-yl)cyclopentyl)-1H-pyrazol-3-yl)amino)-4-fluoro-2,3-dihydrobenzo[d]isothiazole 1,1-dioxide] |
| 2760 | > 10000 | COc1cccc(C2CCC(c3cc(Nc4cc5c(cc4F)S(=O)(=O)NC5)n[nH]3)C2)n1 (stereo not shown) [Example 11, 6-fluoro-5-((5-(3-(6-methoxypyridin-2-yl)cyclopentyl)-1H-pyrazol-3-yl)amino)-2,3-dihydrobenzo[d]isothiazole 1,1-dioxide] |
| 4410 | > 10000 | Cc1cccc(C2CCC(c3cc(Nc4ccc5c(c4F)CNS5(=O)=O)n[nH]3)C2)n1 (stereo not shown) [Example 120, 4-fluoro-5-((5-(3-(6-methylpyridin-2-yl)cyclopentyl)-1H-pyrazol-3-yl)amino)-2,3-dihydrobenzo[d]isothiazole 1,1-dioxide] |
| 285 | > 10000 | Cc1cc(C(C)(C)C)cc(C2CCC(c3cc(Nc4ccc5c(c4F)CS(=O)(=O)N5)n[nH]3)C2)n1 (stereo not shown) [Example 164, 5-((5-(3-(4-(tert-butyl)-6-methylpyridin-2-yl)cyclopentyl)-1H-pyrazol-3-yl)amino)-4-fluoro-1,3-dihydrobenzo[c]isothiazole 2,2-dioxide] |

Second part, the molecule before the results:

| SMILES | IC50 (CDK2/Cyclin E1) [nM] | IC50 (CDK1/Cyclin B1) [nM] |
| --- | --- | --- |
| Cc1nc(C2CCC(c3cc(Nc4ccc5c(c4F)CNS5(=O)=O)n[nH]3)C2)oc1C(C)(C)C (stereo not shown) [Example 111, 5-((5-(3-(5-(tert-butyl)-4-methyloxazol-2-yl)cyclopentyl)-1H-pyrazol-3-yl)amino)-4-fluoro-2,3-dihydrobenzo[d]isothiazole 1,1-dioxide] | 17 | 4470 |
| CC(C)(C)c1cccc(C2CCC(c3cc(Nc4ccc5c(c4F)CNS5(=O)=O)[nH]n3)C2)n1 (stereo not shown) [Example 118, 5-((3-(3-(6-(tert-butyl)pyridin-2-yl)cyclopentyl)-1H-pyrazol-5-yl)amino)-4-fluoro-2,3-dihydrobenzo[d]isothiazole 1,1-dioxide] | 725 | > 10000 |
| CC(C)(C)c1ccc(C2CCC(c3cc(Nc4ccc5c(c4F)CNS5(=O)=O)[nH]n3)C2)nc1 (stereo not shown) [Example 119, 5-((3-(3-(5-(tert-butyl)pyridin-2-yl)cyclopentyl)-1H-pyrazol-5-yl)amino)-4-fluoro-2,3-dihydrobenzo[d]isothiazole 1,1-dioxide] | > 10000 | > 10000 |
| CC(C)(C)c1coc(C2CCC(c3cc(Nc4ccc5c(c4F)CNS5(=O)=O)n[nH]3)C2)n1 (stereo not shown) [Example 94, 5-((5-(3-(4-(tert-butyl)oxazol-2-yl)cyclopentyl)-1H-pyrazol-3-yl)amino)-4-fluoro-2,3-dihydrobenzo[d]isothiazole 1,1-dioxide] | 417 | > 10000 |
| Cn1ncc(C(C)(C)C)c1O[C@@H]1CC[C@H](c2cc(Nc3ccc4c(c3F)CNS4(=O)=O)n[nH]2)C1 (relative stereo) [Example 72, cis-5-((5-(3-((4-(tert-butyl)-1-methyl-1H-pyrazol-5-yl)oxy)cyclopentyl)-1H-pyrazol-3-yl)amino)-4-fluoro-2,3-dihydrobenzo[d]isothiazole 1,1-dioxide] | 5910 | > 10000 |
| CC(C)(C)c1cc(C2CCC(c3cc(Nc4ccc5c(c4F)CNS5(=O)=O)n[nH]3)C2)ccn1 (stereo not shown) [Example 129, 5-((5-(3-(2-(tert-butyl)pyridin-4-yl)cyclopentyl)-1H-pyrazol-3-yl)amino)-4-fluoro-2,3-dihydrobenzo[d]isothiazole 1,1-dioxide] | 8020 | > 10000 |
| CC(C)(C)c1cn([C@@H]2CC[C@H](c3cc(Nc4ccc5c(c4F)CNS5(=O)=O)n[nH]3)C2)nn1 (relative stereo) [Example 90, cis-5-((5-(3-(4-(tert-butyl)-1H-1,2,3-triazol-1-yl)cyclopentyl)-1H-pyrazol-3-yl)amino)-4-fluoro-2,3-dihydrobenzo[d]isothiazole 1,1-dioxide] | 3310 | > 10000 |
| CC(C)(C)c1ccnnc1O[C@@H]1CC[C@H](c2cc(Nc3ccc4c(c3F)CNS4(=O)=O)n[nH]2)C1 (relative stereo) [Example 37, cis-5-((5-(3-((4-(tert-butyl)pyridazin-3-yl)oxy)cyclopentyl)-1H-pyrazol-3-yl)amino)-4-fluoro-2,3-dihydrobenzo[d]isothiazole 1,1-dioxide] | 0.5 | 11 |

— patent US20260200897A1, “4-((5-(3-(4-(PYRIDIN-2-YL)CYCLOPENTYL)-1H-PYRAZOL-3-YL)AMINO)-BENZENESULFONAMIDE DERIVATIVES AND SIMILAR COMPOUNDS AS CDK INHIBITORS FOR THE TREATMENT OF CANCER” (BeOne Medicines I GmbH, priority 2023, published 2026)
